The text below walks through data of ChEMBL document CHEMBL5465560, “Selectivity Literature for EUbOPEN Chemogenomic Library” (2024).

The target in assay [1] is T1, Peripheral plasma membrane protein CASK (Homo sapiens) (UniProt O14936).
T1 sequence (whole entry): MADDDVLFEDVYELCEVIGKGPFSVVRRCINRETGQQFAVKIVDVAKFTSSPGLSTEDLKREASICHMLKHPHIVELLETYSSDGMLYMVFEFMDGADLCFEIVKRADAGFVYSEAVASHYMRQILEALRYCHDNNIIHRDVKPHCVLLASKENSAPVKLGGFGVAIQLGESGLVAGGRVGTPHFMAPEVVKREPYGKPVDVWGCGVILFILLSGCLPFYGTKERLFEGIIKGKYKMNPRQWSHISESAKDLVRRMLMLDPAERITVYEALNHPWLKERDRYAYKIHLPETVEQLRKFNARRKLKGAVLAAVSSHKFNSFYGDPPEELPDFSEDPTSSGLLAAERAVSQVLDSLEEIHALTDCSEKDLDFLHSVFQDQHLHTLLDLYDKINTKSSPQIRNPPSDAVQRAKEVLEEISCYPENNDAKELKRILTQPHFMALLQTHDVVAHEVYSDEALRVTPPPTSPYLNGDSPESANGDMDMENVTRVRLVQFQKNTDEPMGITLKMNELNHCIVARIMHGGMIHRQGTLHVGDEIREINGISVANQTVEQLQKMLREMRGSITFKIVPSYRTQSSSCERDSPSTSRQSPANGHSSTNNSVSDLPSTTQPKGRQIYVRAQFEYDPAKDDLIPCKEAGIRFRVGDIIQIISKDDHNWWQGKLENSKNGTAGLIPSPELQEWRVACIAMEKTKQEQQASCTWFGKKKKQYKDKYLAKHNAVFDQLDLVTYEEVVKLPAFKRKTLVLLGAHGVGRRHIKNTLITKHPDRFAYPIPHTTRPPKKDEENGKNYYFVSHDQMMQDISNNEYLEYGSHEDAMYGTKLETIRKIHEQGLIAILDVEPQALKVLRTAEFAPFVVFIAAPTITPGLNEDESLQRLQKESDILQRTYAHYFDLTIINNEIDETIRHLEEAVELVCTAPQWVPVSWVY
In words: Selectivity interaction (Ambit KINOMEscan and KiNATiv profiling in Jurkat cells) EUB0000090b CASK. Type of assay: cell-based. The settings on record: at 1 µM.

Assay [2] has as its target Activin receptor type-1-like (Homo sapiens) (UniProt P37023). As to the kind of experiment: Selectivity interaction (Ambit KINOMEscan and KiNATiv profiling in Jurkat cells) EUB0000090b ACVRL1. Type of assay: cell-based. The settings on record: at 1 µM.
In assay [3] the target is Histone-lysine N-methyltransferase 2A (Homo sapiens) (UniProt Q03164). As to the kind of experiment: Selectivity interaction (Methyltransferase screen (Scintillation proximity assays)) EUB0000255b MLL.
Chain of Histone-lysine N-methyltransferase 2A (Homo sapiens) (Q03164 1-2718 limits assumed): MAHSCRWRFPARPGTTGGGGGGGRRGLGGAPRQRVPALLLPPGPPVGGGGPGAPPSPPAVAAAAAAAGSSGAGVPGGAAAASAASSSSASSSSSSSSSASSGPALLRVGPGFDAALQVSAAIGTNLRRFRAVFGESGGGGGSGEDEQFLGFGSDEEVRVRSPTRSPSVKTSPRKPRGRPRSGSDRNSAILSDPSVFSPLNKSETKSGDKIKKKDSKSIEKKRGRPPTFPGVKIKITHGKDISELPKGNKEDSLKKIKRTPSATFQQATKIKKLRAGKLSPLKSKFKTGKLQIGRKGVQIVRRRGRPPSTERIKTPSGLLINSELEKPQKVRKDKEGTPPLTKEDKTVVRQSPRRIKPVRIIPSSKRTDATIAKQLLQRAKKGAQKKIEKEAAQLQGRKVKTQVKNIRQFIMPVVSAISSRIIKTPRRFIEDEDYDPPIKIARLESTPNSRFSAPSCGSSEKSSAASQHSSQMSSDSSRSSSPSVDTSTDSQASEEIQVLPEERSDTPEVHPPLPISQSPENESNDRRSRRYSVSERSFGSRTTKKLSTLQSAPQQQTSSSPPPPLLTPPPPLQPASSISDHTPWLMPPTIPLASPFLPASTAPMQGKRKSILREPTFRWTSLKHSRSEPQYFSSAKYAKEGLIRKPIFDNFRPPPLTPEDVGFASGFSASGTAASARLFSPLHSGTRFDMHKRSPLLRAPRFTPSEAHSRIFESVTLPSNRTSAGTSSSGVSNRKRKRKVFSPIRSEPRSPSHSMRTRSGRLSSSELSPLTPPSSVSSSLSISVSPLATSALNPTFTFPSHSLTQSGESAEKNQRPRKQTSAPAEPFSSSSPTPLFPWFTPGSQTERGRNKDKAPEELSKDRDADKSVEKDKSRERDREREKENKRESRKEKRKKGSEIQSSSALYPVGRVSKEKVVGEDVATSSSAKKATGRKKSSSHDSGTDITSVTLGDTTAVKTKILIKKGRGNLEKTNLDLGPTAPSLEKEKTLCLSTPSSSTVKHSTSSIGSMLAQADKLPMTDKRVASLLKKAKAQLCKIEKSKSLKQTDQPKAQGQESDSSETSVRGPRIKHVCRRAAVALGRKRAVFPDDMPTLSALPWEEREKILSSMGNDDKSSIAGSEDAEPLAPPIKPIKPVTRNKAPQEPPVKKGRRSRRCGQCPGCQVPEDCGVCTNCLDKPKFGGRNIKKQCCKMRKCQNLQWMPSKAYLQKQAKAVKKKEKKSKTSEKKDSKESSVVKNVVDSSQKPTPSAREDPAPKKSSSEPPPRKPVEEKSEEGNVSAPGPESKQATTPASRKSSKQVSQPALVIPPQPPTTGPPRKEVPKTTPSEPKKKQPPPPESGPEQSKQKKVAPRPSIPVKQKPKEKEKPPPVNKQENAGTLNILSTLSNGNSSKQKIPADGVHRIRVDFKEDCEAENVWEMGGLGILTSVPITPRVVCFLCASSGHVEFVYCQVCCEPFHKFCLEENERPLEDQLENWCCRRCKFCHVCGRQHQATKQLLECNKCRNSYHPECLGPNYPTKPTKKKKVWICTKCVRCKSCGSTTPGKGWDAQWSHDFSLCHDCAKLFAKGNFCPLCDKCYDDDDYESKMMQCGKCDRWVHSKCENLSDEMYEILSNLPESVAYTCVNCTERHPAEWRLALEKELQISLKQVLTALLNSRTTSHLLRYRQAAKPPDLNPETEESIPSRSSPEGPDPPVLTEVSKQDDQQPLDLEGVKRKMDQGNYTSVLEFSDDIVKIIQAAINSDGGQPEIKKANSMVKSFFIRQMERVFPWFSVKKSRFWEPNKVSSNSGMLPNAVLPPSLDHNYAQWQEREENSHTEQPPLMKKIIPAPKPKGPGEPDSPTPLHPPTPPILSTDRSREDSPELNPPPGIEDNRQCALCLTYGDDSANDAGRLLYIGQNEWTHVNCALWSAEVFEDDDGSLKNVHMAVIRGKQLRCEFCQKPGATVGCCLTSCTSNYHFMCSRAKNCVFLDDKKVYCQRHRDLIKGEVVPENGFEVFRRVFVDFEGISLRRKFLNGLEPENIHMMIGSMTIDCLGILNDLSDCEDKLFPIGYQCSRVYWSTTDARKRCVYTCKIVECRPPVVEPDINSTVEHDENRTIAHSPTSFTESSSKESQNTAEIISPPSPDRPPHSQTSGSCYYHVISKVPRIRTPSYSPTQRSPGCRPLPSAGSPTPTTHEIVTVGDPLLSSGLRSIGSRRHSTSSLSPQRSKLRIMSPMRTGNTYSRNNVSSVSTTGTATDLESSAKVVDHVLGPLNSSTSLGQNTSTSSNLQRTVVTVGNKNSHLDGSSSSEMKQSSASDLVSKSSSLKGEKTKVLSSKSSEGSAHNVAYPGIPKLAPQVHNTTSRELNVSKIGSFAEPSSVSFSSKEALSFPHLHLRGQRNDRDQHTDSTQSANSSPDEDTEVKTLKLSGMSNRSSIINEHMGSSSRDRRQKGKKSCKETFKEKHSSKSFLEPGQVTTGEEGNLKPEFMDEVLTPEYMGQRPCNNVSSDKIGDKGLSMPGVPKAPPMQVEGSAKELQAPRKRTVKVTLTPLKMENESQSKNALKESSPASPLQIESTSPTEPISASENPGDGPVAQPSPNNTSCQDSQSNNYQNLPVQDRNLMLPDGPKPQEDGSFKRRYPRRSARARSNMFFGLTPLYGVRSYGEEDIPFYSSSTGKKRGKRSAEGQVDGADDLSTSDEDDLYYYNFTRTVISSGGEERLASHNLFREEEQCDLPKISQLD
Chain of Histone-lysine N-methyltransferase 2A (Homo sapiens) (Q03164 2719-3969 limits assumed): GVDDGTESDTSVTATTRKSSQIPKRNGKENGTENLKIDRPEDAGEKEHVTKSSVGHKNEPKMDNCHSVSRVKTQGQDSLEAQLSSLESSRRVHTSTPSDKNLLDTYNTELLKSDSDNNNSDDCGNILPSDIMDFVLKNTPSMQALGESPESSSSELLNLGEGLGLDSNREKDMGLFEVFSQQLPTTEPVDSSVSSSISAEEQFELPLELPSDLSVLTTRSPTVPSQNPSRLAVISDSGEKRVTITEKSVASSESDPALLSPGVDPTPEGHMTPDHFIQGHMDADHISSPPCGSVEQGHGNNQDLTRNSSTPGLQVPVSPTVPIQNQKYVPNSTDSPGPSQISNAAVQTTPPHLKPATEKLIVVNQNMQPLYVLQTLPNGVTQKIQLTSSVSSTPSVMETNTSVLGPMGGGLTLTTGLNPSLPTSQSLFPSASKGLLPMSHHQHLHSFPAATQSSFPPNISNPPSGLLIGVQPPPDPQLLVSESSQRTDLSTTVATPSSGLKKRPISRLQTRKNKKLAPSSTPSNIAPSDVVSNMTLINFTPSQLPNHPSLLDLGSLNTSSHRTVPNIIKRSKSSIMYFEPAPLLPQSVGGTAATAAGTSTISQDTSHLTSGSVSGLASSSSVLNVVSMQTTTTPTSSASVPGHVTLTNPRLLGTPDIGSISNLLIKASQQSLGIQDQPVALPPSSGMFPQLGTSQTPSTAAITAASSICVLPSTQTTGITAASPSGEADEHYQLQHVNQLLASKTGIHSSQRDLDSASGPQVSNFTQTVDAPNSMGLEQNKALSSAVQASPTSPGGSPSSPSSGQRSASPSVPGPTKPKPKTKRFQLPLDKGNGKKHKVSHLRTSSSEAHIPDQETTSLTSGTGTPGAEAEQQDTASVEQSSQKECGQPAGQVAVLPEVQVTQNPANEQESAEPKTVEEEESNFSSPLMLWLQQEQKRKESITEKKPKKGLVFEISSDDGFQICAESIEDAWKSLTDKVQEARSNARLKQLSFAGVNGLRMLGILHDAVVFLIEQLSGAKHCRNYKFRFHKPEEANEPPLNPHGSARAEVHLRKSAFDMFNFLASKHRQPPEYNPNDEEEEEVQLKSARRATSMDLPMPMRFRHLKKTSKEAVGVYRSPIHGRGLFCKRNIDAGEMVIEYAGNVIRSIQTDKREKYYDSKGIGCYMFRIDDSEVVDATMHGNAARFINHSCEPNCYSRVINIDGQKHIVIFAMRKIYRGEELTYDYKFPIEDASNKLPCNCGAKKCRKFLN
The target of assay [4] is Mitogen-activated protein kinase 14 (Homo sapiens, UniProt Q16539). In words: Selectivity interaction (KinomeScan (DiscoverX)) EUB0000655a MAPK14. The settings on record: at 10 µM.
In assay [5] the target is Angiopoietin-1 receptor (Homo sapiens) (UniProt Q02763). In words: Selectivity interaction (KinomeScan (DiscoverX)) EUB0000695a TEK. As to conditions: at 100 nM.
The target in assay [6] is Mitogen-activated protein kinase kinase kinase 20 (Homo sapiens) (UniProt Q9NYL2). In words: Selectivity interaction (LanthaScreen Eu Kinase Binding Assay) EUB0001632a MAP3K20. The settings on record: at 10 µM. In general terms: In TR-FRET formats the signal depends on donor and acceptor labels being close together.
For assay [7], the target named is Serine/threonine-protein kinase MRCK alpha (Homo sapiens) (UniProt Q5VT25). In words: Selectivity interaction (KinomeScan (DiscoverX)) EUB0000607a CDC42BPA. As to conditions: at 10 µM.
For assay [8], the target named is Tyrosine-protein kinase CSK (Homo sapiens) (UniProt P41240). In words: Selectivity interaction (Kinase panel (Invitrogen)) EUB0000639a CSK. The settings on record: at 200 nM.
Chain of Tyrosine-protein kinase CSK (Homo sapiens) (P41240 2-450 limits assumed): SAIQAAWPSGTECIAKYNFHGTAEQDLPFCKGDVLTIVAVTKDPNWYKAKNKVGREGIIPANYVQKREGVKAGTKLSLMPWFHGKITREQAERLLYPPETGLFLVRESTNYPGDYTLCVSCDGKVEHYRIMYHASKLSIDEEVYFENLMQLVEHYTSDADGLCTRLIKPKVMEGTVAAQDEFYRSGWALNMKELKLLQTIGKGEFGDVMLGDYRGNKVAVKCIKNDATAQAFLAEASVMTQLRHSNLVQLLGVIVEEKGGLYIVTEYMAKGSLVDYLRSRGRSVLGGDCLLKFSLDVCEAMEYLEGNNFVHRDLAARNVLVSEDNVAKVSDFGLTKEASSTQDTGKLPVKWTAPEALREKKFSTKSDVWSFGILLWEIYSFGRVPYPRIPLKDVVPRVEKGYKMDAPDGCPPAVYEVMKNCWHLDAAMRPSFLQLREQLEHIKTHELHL
The target in assay [9] is T2, Tyrosine-protein kinase ZAP-70 (Homo sapiens) (UniProt P43403).
T2 sequence (whole entry): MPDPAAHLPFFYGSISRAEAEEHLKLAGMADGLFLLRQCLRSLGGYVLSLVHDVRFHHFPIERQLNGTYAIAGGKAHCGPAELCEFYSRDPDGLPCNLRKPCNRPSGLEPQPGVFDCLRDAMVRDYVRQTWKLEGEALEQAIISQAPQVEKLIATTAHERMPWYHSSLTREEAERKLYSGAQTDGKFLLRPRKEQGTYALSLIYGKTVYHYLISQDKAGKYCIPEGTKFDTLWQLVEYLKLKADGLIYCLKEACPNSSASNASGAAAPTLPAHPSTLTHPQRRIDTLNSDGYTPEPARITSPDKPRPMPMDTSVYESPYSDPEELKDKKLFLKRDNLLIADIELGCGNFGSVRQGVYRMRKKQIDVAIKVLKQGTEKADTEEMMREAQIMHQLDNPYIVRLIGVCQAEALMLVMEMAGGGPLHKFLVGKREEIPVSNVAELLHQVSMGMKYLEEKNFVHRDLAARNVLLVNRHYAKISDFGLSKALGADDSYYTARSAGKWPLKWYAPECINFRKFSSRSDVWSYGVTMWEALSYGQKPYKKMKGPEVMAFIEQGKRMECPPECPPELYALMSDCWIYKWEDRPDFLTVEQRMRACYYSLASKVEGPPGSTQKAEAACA
As to the kind of experiment: Selectivity interaction (KinomeScan (DiscoverX)) EUB0000595a ZAP70. As to conditions: at 10 µM.

Assay [10] addresses Tyrosine-protein kinase receptor Tie-1 (Homo sapiens) (UniProt P35590). As to the kind of experiment: Selectivity interaction (KinomeScan (DiscoverX)) EUB0000618a TIE1. The settings on record: at 10 µM.

Chain of Activin receptor type-1-like (Homo sapiens) (P37023 whole entry): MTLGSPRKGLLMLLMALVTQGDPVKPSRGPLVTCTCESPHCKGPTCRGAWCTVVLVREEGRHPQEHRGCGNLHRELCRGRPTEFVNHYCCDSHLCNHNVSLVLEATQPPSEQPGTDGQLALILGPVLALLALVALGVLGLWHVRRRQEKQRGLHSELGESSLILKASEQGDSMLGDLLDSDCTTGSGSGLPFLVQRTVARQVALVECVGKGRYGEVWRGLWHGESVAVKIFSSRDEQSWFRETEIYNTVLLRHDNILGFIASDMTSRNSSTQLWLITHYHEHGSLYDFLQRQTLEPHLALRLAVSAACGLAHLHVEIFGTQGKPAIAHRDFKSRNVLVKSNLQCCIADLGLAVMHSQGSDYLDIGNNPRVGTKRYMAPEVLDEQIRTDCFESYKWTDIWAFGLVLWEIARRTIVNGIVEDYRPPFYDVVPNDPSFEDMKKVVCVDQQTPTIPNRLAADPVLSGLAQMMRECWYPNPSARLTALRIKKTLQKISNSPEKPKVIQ

Consider `CN(C)C/C=C/C(=O)Nc1ccc(C(=O)N2CCCC(Nc3ncc(Cl)c(-c4c[nH]c5ccccc45)n3)C2)cc1` (stereo unspecified), for which the % of control in assay [1] turned out to be 90%; in assay [2], 79%.
`COCCN1CCC(c2cc(CN(C)C(=O)c3cccc(Oc4ccccc4)c3)ccn2)CC1`: the % activity was above 95% in [3] (at 1 µM) and above 90% in assay [3] (at 10 µM).
In turn, `CN(C)CCOc1ccc(-c2nc(-c3ccncc3)c(-c3ccc4c(c3)CC/C4=N\O)[nH]2)cc1` had a % of control in assay [4] of 85%.
The molecule `Cc1cc(F)c(C(=O)Nc2cccc(-c3nncn3C(C)C)n2)cc1-n1cnc(C2CC2)c1` returned a % of control in [5] of 100%.
Turning to `Cn1cc(-n2cnc3c(NCc4nc5cc(Cl)c(Cl)cc5[nH]4)nc(N4CCOCC4)nc32)cn1`, the % of inhibition in [6] is -9.9%.
On to `CNC(=O)Nc1ccc(-c2nc(N3CC4CCC(C3)O4)c3cnn(C4CCC5(CC4)OCCO5)c3n2)cc1`, for which the % of control in assay [7] was found to be 100%.
For `CC[C@@H]1[C@H](F)C(=O)N[C@@H]1COc1nccc2cc(C(N)=O)c(OC)cc12` [ZIMLOVISERTIB], in [8], the % of inhibition stood at 11.4%.
Turning to `COCC(=O)NC/C=C/c1ccc2ncnc(Nc3ccc(Oc4ccc(C)nc4)c(C)c3)c2c1` [CP-724714], in assay [9], the % of control amounted to 100%.
The molecule `O[C@H]1CC[C@H](Nc2ncc3nc(Nc4c(F)cc(F)cc4F)n([C@H]4CCOC4)c3n2)CC1` had a % of control in assay [10] of 100%.
